Results taken from the supplement of paper PMC10307832.

Experiments:
Assay in all cases: relative viability (nuclei count vs DMSO), 5 days (fraction); higher = more cells survive
[1] = compound: OCc1c[nH]c2ccccc12 [Indole-3-carbinol] + CS(=O)(=O)N1CCN(Cc2cc3nc(-c4cccc5[nH]ncc45)nc(N4CCOCC4)c3s2)CC1 [Pictilisib] (partner 1 µM)
Summary of the method: (§1)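 Relative viability divides the nuclei count in treated wells by that in vehicle wells. Lung cancer cell lines were seeded in 1536-well plates, dosed by pin tool the next day, and fixed and stained after 5 days in one step with final 0.05% Triton X-100, 1% formaldehyde and 1 ug/ml Hoechst. Dosing was a single drug or a fixed anchor-drug dose plus five library-drug doses (not always all listed) in √10 steps, and values are medians of duplicate plates imaged at 4×.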

[2] = compound: OCc1c[nH]c2ccccc12 [Indole-3-carbinol] + CC(=O)Nc1cccc(-n2c(=O)n(C3CC3)c(=O)c3c(Nc4ccc(I)cc4F)n(C)c(=O)c(C)c32)c1 [Trametinib] (partner 0.02 µM)
Summary of the method: as §1

[3] = compound: OCc1c[nH]c2ccccc12 [Indole-3-carbinol] + CC(=O)c1c(C)c2cnc(Nc3ccc(N4CCNCC4)cn3)nc2n(C2CCCC2)c1=O [Palbociclib] (partner 0.5 µM)
Summary of the method: as §1

[4] = compound: OCc1c[nH]c2ccccc12 [Indole-3-carbinol] + CS(=O)(=O)CCNCc1ccc(-c2ccc3ncnc(Nc4ccc(OCc5cccc(F)c5)c(Cl)c4)c3c2)o1 [Lapatinib] (partner 2 µM)
Summary of the method: as §1

[5] = compound: OCc1c[nH]c2ccccc12 [Indole-3-carbinol] + CCNC(=O)c1noc(-c2cc(C(C)C)c(O)cc2O)c1-c1ccc(CN2CCOCC2)cc1 [Luminespib] (partner 0.01 µM)
Summary of the method: as §1

Cell Line	relative viability ([1]; first compound 0.253 µM)	relative viability ([1]; first compound 0.8 µM)	relative viability ([1]; first compound 2.53 µM)	relative viability ([1]; first compound 8 µM)	relative viability ([2]; first compound 0.253 µM)	relative viability ([2]; first compound 0.8 µM)	relative viability ([2]; first compound 2.53 µM)	relative viability ([2]; first compound 8 µM)	relative viability ([3]; first compound 0.253 µM)	relative viability ([3]; first compound 0.8 µM)	relative viability ([3]; first compound 2.53 µM)	relative viability ([3]; first compound 8 µM)	relative viability ([4]; first compound 0.253 µM)	relative viability ([4]; first compound 0.8 µM)	relative viability ([4]; first compound 2.53 µM)	relative viability ([4]; first compound 8 µM)	relative viability ([5]; first compound 0.253 µM)	relative viability ([5]; first compound 0.8 µM)	relative viability ([5]; first compound 2.53 µM)	relative viability ([5]; first compound 8 µM)
NCI-H460	0.479	0.271	0.373	0.337	0.119	0.151	0.11	0.129	0.149	0.17	0.229	0.19	1.09	0.993	0.983	0.9	0.0368	0.037	0.0298	0.0346
NCI-H520	0.287	0.255	0.27	0.254	0.702	0.575	0.741	0.772	0.225	0.183	0.21	0.217	0.899	0.838	0.868	0.742	0.188	0.178	0.219	0.211
NCI-H647	0.469	–	0.489	0.437	0.562	0.405	0.508	0.524	0.392	0.318	0.292	0.433	1.24	0.904	0.87	0.969	0.261	0.199	0.156	0.236
NCI-H650	0.899	0.871	0.929	0.913	1.13	0.958	1.04	0.956	0.311	0.338	0.352	0.307	0.333	0.817	0.98	0.842	0.785	0.882	0.844	0.647
NCI-H661	0.389	0.325	0.448	0.384	0.526	0.564	0.606	0.58	0.426	0.412	0.447	0.444	0.541	0.44	0.533	0.478	0.922	0.952	0.965	0.895
NCI-H727	0.263	0.409	0.477	0.494	0.372	0.393	0.412	0.392	0.634	0.669	0.699	0.648	0.75	0.699	0.782	0.769	0.355	0.452	0.344	0.328
NCI-H838	0.537	0.431	0.459	0.431	0.593	0.499	0.525	0.495	0.191	0.203	0.231	0.223	1.09	0.805	0.959	0.949	0.292	0.305	0.308	0.303
NCI-H1355	0.324	0.415	0.435	0.428	0.43	0.343	0.386	0.415	0.401	0.379	0.43	0.392	1.08	0.981	0.975	0.887	0.754	0.764	0.618	0.643
NCI-H1395	0.616	0.67	0.639	0.662	1	1.01	1.08	0.995	0.625	0.589	0.734	0.531	1.04	0.873	0.931	0.829	0.606	0.813	0.817	0.686
NCI-H1437	0.535	0.438	0.466	0.433	0.549	0.558	0.459	0.458	0.296	0.346	0.296	0.305	0.818	0.868	0.781	0.761	1.07	1.2	1.13	1.11
NCI-H1650	0.521	0.399	0.547	0.6	0.565	0.563	0.561	0.498	0.376	0.341	0.338	0.351	0.892	0.561	0.875	0.716	0.167	–	0.19	0.221
NCI-H1651	0.613	0.486	0.499	0.554	0.819	0.787	0.823	0.822	0.53	0.521	0.524	0.495	0.619	0.69	0.921	0.704	0.848	0.877	0.686	0.753
NCI-H1666	0.339	0.548	0.539	0.394	0.828	0.85	0.939	0.788	0.667	0.694	0.667	0.626	0.76	0.584	0.581	0.7	0.914	0.925	1.01	1.05
NCI-H1734	0.404	0.423	0.492	0.487	0.676	0.762	0.617	0.651	0.352	0.376	0.331	0.31	0.979	1.02	1.04	0.955	0.242	0.246	0.194	0.221
NCI-H1755	0.401	0.318	0.442	0.424	0.784	0.737	0.815	0.733	0.489	0.444	0.487	0.423	1.06	0.978	1.07	1.03	0.554	0.407	0.49	0.348
NCI-H1792	0.217	0.221	0.257	0.245	0.436	0.369	0.432	0.379	0.74	0.634	0.675	0.697	0.913	0.945	0.903	0.93	0.416	0.484	0.368	0.398
